ChEMBL document CHEMBL2406969, “Gombamide A, a cyclic thiopeptide from the sponge Clathria gombawuiensis” (2013)
Numbered stars: 1 amine (or outer) side, 2 acyl side, 3 side chain; on linkers, the order of the positions; unused ones are H or OH. Bridge positions count the residues as written; N and C are the ends. Square brackets hold non-standard residues; d marks the D form. Peptide text beside a SMILES is read from it. * marks the point of attachment. X1 = O=C([C@@H]1CCCN1C[C@@H]1CCCN1[*:1])[*:2]; pGlu = O=C1CC[C@@H](C(=O)O)N1; X2 = Oc1ccc(/C=C/N*)cc1

Tests used:
[1] = target: Sodium/potassium-transporting ATPase (Homo sapiens) (UniProt P05023+P14415+P05026+P50993+P54709+P13637+Q13733+P54710)
Description: Inhibition of Na+/K+ ATPase (unknown origin)

K562 = assay: Cytotoxicity against human K562 cells; format: functional; conditions: read-out: LC50 (the source's name)
A549 = assay: Cytotoxicity against human A549 cells; format: functional; conditions: read-out: LC50 (the source's name)

SMILES	LC50 [1] [µM]	CC50 (K562) [µM]	CC50 (A549) [µM]
O=C1CC[C@@H](C(=O)N[C@H]2CSSC[C@@H](C(=O)N/C=C/c3ccc(O)cc3)NC(=O)[C@H](Cc3ccccc3)NC(=O)[C@@H]3CCCN3C[C@@H]3CCCN3C2=O)N1 ([pGlu]C[X1]FC-X2; disulfide 2-5)	17.8	6.9	7.1
COc1cccc2c1C(=O)c1c(O)c3c(c(O)c1C2=O)C[C@@](O)(C(=O)CO)C[C@@H]3O[C@H]1C[C@H](N)[C@H](O)[C@H](C)O1 [DOXORUBICIN]	–	0.7	0.5
